In experiment [1] the test system is Staphylococcus aureus. As to the kind of experiment: Antibacterial activity against Staphylococcus aureus ATCC 25923 assessed as diameter of growth inhibition zone at 0.25 mg/ml after 24 hrs by disk diffusion assay. The class given is functional. The conditions noted are these: for zone of inhibition at 250 µg/mL: ATCC 25923, 24 h, read-out: DIZ.
The subject of experiment [2] is Staphylococcus aureus. Put plainly: Antibacterial activity against Staphylococcus aureus ATCC 25923 assessed as diameter of growth inhibition zone at 0.5 mg/ml after 24 hrs by disk diffusion assay. The experiment is classed as functional. The conditions noted are these: for zone of inhibition at 500 µg/mL: ATCC 25923, 24 h, read-out: DIZ.
In experiment [3] the test system is Staphylococcus aureus. As to the kind of experiment: Antibacterial activity against Staphylococcus aureus ATCC 25923 assessed as diameter of growth inhibition zone at 1 mg/ml after 24 hrs by disk diffusion assay. The conditions noted are these: for zone of inhibition at 1000 µg/mL: ATCC 25923, 24 h, read-out: DIZ. The class given is functional.
For experiment [4], the system named is Escherichia coli. Put plainly: Antibacterial activity against Escherichia coli ATCC 25922 assessed as diameter of growth inhibition zone at 0.25 mg/ml after 24 hrs by disk diffusion assay. The experiment is classed as functional. The conditions noted are these: for zone of inhibition at 250 µg/mL: ATCC 25922, 24 h, read-out: DIZ.
Experiment [5] deals with Escherichia coli. As to the kind of experiment: Antibacterial activity against Escherichia coli ATCC 25922 assessed as diameter of growth inhibition zone at 0.5 mg/ml after 24 hrs by disk diffusion assay. The experiment is classed as functional. The conditions noted are these: for zone of inhibition at 500 µg/mL: ATCC 25922, 24 h, read-out: DIZ.
Experiment [6] deals with Escherichia coli. As to the kind of experiment: Antibacterial activity against Escherichia coli ATCC 25922 assessed as diameter of growth inhibition zone at 1 mg/ml after 24 hrs by disk diffusion assay. The conditions noted are these: for zone of inhibition at 1000 µg/mL: ATCC 25922, 24 h, read-out: DIZ. The class given is functional.
Experiment [7] deals with Staphylococcus aureus. Put plainly: Antibacterial activity against Staphylococcus aureus ATCC 25923 assessed as growth inhibition after 18 hrs by colorimetric microdilution technique. The conditions noted are these: ATCC 25923, 18 h. The class given is functional.
For experiment [8], the system named is Escherichia coli. Put plainly: Antibacterial activity against Escherichia coli ATCC 25922 assessed as growth inhibition after 18 hrs by colorimetric microdilution technique. The experiment is classed as functional. The conditions noted are these: ATCC 25922, 18 h.
A further experiment concerns Candida albicans. As to the kind of experiment: Antifungal activity against Candida albicans ATCC 90028. The class given is functional, organism-based.
Experiment [9] deals with Staphylococcus aureus. Put plainly: Antibacterial activity against Staphylococcus aureus ATCC 25923 assessed as diameter of growth inhibition zone at 10 ug/disk after 24 hrs by disk diffusion assay. The experiment is classed as functional, organism-based.
The subject of experiment [10] is Escherichia coli. Put plainly: Antibacterial activity against Escherichia coli ATCC 25922 assessed as diameter of growth inhibition zone at 10 ug/disk after 24 hrs by disk diffusion assay. The experiment is classed as functional, organism-based.

Activity calls are given as the source filed them. The rule behind the calls is not given here.

For the compound `CCN(CC)C(=S)SC1C(=O)c2cc(I)cc(I)c2OC1c1ccc(Cl)cc1` (stereo not given), the “diameter of the inhibition zone (DIZ)” value with Staphylococcus aureus [1], in the experiment on Staphylococcus aureus [2], in the experiment on Staphylococcus aureus [3], in the experiment with Escherichia coli [4], in the experiment on Escherichia coli [5] and in the experiment with Escherichia coli [6] was “inactive” in each case.

As for `CCN(CC)[c+]1sc2c(s1)C(c1ccc(OC)cc1)Oc1ccc(Br)cc1-2.F[B-](F)(F)F` (stereo not given), the results for the MIC in the experiment with Staphylococcus aureus [7] and in the experiment on Escherichia coli [8] were 1.95 µg/mL and 125 µg/mL, respectively.

`CCN(CC)[c+]1sc2c(s1)C(c1ccc(Cl)cc1)Oc1c(I)cc(I)cc1-2.[O-][Cl+3]([O-])([O-])[O-]` (stereo not given): the zone of inhibition at 250 µg/mL in the experiment with Staphylococcus aureus [1] was found to be 8.33 mm; with Escherichia coli [4], 7.66 mm. The zone of inhibition at 500 µg/mL with Staphylococcus aureus [2] amounted to 14 mm; with Escherichia coli [5] it was 8.33 mm. Also, the results for the zone of inhibition at 1000 µg/mL in the experiment with Staphylococcus aureus [3] and in the experiment with Escherichia coli [6] were 16.7 mm and 9.33 mm, respectively. In addition, the MIC worked out at 1.95 µg/mL in the experiment with Staphylococcus aureus [7] and 7.81 µg/mL in the experiment with Escherichia coli [8].

For the compound `CCN(CC)[c+]1sc2c(s1)C(c1ccc(Cl)cc1)Oc1ccccc1-2.F[B-](F)(F)F` (stereo not given), the zone of inhibition at 250 µg/mL in the experiment with Staphylococcus aureus [1] stood at 7.33 mm. In addition, the zone of inhibition at 500 µg/mL in the experiment with Staphylococcus aureus [2] worked out at 14.3 mm. Further, the zone of inhibition at 1000 µg/mL with Staphylococcus aureus [3] is 16.3 mm. Further, the “diameter of the inhibition zone (DIZ)” value in the experiment on Escherichia coli [4], with Escherichia coli [5] and in the experiment with Escherichia coli [6] was “inactive” throughout. The MIC is 1.95 µg/mL in the experiment on Staphylococcus aureus [7] and 62.5 µg/mL with Escherichia coli [8]. The result in the experiment on Candida albicans was Active.

Consider `CCN(CC)[c+]1sc2c(s1)C(c1ccc(Cl)cc1)Oc1ccc(Br)cc1-2.[O-][Cl+3]([O-])([O-])[O-]` (stereo not given), for which the values for the zone of inhibition at 250 µg/mL in the experiment on Staphylococcus aureus [1] and in the experiment with Escherichia coli [4] were 15 mm and 8.33 mm, respectively. Further, the zone of inhibition at 500 µg/mL in the experiment with Staphylococcus aureus [2] was found to be 17.3 mm; with Escherichia coli [5], 10.7 mm. Further, the zone of inhibition at 1000 µg/mL in the experiment with Staphylococcus aureus [3] is 20.3 mm; with Escherichia coli [6], 11.7 mm. Also, the MIC in the experiment with Staphylococcus aureus [7] came out at 0.48 µg/mL; in the experiment with Escherichia coli [8], 3.9 µg/mL.

Take `CCN(CC)[c+]1sc2c(s1)C(c1ccc(Cl)cc1)Oc1c(Br)cc(Br)cc1-2.F[B-](F)(F)F` (stereo not given): the zone of inhibition at 250 µg/mL in the experiment with Staphylococcus aureus [1] was 17.7 mm. For the same compound, the zone of inhibition at 500 µg/mL in the experiment with Staphylococcus aureus [2] is 18.7 mm. Also, the figures for the zone of inhibition at 1000 µg/mL in the experiment with Staphylococcus aureus [3] and with Escherichia coli [6] were 21.3 mm and 10.7 mm, respectively. Also, the “diameter of the inhibition zone (DIZ)” value in the experiment on Escherichia coli [4] and in the experiment on Escherichia coli [5] was “inactive” each time. The MIC came out at 1.95 µg/mL with Staphylococcus aureus [7] and 7.81 µg/mL in the experiment on Escherichia coli [8]. Further, in the experiment on Candida albicans, the outcome was Active.

Take `CCN(CC)[c+]1sc2c(s1)C(c1ccc(Cl)cc1)Oc1ccc(Br)cc1-2.F[B-](F)(F)F` (stereo not given): the MIC with Staphylococcus aureus [7] is 0.48 µg/mL; with Escherichia coli [8], 3.9 µg/mL.

With `CCN(CC)C(=S)SC1C(=O)c2cc(Br)ccc2OC1c1ccc(OC)cc1` (mixture of isomers), the “diameter of the inhibition zone (DIZ)” value in the experiment with Staphylococcus aureus [1], with Staphylococcus aureus [2], in the experiment on Staphylococcus aureus [3], in the experiment with Escherichia coli [4], in the experiment on Escherichia coli [5] and in the experiment on Escherichia coli [6] was “inactive” each time.

On to GENTAMICIN, for which the inhibition zone (IZ) in the experiment with Staphylococcus aureus [9] came to 18.3 mm; in the experiment with Escherichia coli [10], 15.8 mm.

On to `CCN(CC)C(=S)SC1C(=O)c2ccccc2OC1c1ccc(Cl)cc1` (mixture of isomers), for which the “diameter of the inhibition zone (DIZ)” value with Staphylococcus aureus [1], with Staphylococcus aureus [2], in the experiment with Staphylococcus aureus [3], in the experiment on Escherichia coli [4], in the experiment on Escherichia coli [5] and in the experiment with Escherichia coli [6] was “inactive” in each case.

Regarding `CCN(CC)C(=S)SC1C(=O)c2cc(Br)cc(Br)c2OC1c1ccc(Cl)cc1` (stereo not given), the “diameter of the inhibition zone (DIZ)” value in the experiment with Staphylococcus aureus [1], in the experiment with Staphylococcus aureus [2], with Staphylococcus aureus [3], with Escherichia coli [4], in the experiment on Escherichia coli [5] and in the experiment with Escherichia coli [6] was “inactive” each time.

As to `CCN(CC)[c+]1sc2c(s1)C(c1ccc(OC)cc1)Oc1ccc(Br)cc1-2.[O-][Cl+3]([O-])([O-])[O-]` (stereo not given), the zone of inhibition at 250 µg/mL was 7.66 mm in the experiment with Staphylococcus aureus [1] and 6.66 mm in the experiment with Escherichia coli [4]. Also, the zone of inhibition at 500 µg/mL in the experiment on Staphylococcus aureus [2] amounted to 9.66 mm; in the experiment on Escherichia coli [5], 7.33 mm. Besides, the zone of inhibition at 1000 µg/mL is 13.7 mm with Staphylococcus aureus [3] and 7.66 mm in the experiment on Escherichia coli [6]. Also, the MIC worked out at 3.9 µg/mL in the experiment with Staphylococcus aureus [7] and 125 µg/mL in the experiment with Escherichia coli [8].

As to `CCN(CC)C(=S)SC1C(=O)c2cc(Br)ccc2OC1c1ccc(Cl)cc1` (stereo not given), the “diameter of the inhibition zone (DIZ)” value in the experiment on Staphylococcus aureus [1], in the experiment with Staphylococcus aureus [2], in the experiment on Staphylococcus aureus [3], in the experiment on Escherichia coli [4], in the experiment on Escherichia coli [5] and in the experiment with Escherichia coli [6] was “inactive” in each case.

Regarding `CCN(CC)[c+]1sc2c(s1)C(c1ccc(Cl)cc1)Oc1c(I)cc(I)cc1-2.F[B-](F)(F)F` (stereo not given), the MIC with Staphylococcus aureus [7] was found to be 0.97 µg/mL; with Escherichia coli [8], 15.6 µg/mL.

Values taken from ChEMBL document CHEMBL3259750, “The antibacterial properties of sulfur containing flavonoids” (2014).
